Experimental data: ChEMBL document CHEMBL4308854, “Novel indole-thiazolidinone conjugates: Design, synthesis and whole-cell phenotypic evaluation as a novel class of antimicrobial agents” (Eur J Med Chem, 2018)
≈ marks a conversion by molar mass, not a printed value.

Columns and labels:
[1] = test system: Mycobacterium tuberculosis; assay: Antitubercular activity against Mycobacterium tuberculosis RCMB 010126 after 7 days by microplate alamar blue assay; assay type: functional; conditions: RCMB 010126, 168 h
[2] = Selectivity index, ratio of IC50 for human WI38 cells to MIC for Mycobacterium tuberculosis RCMB 010126; assay type: toxicity; conditions: read-out: Selectivity Index
[3] = test system: Mycobacterium tuberculosis; assay: Antitubercular activity against Mycobacterium tuberculosis RCMB 010126 clinical isolate after 4 days by microplate alamar blue assay; assay type: functional; conditions: for MIC: Mycobacterium tuberculosis, RCMB 010126, 96 h
Staphylococcus aureus [4] = assay: Antibacterial activity against Staphylococcus aureus RCMB 010028 assessed as diameter of zone inhibition after 24 hrs by agar well diffusion assay; assay type: functional
Staphylococcus aureus [5] = assay: Antibacterial activity against Staphylococcus aureus RCMB 010028 after 24 hrs by serial dilution method; assay type: functional; conditions: RCMB 010028, 24 h
Pseudomonas aeruginosa [6] = assay: Antibacterial activity against Pseudomonas aeruginosa RCMB 010043 assessed as diameter of zone inhibition after 24 hrs by agar well diffusion assay; assay type: functional
Escherichia coli [7] = assay: Antibacterial activity against Escherichia coli RCMB 010052 assessed as diameter of zone inhibition after 24 hrs by agar well diffusion assay; assay type: functional
Pseudomonas aeruginosa [8] = assay: Antibacterial activity against Pseudomonas aeruginosa RCMB 010043 after 24 hrs by serial dilution method; assay type: functional; conditions: RCMB 010043, 24 h
Escherichia coli [9] = assay: Antibacterial activity against Escherichia coli RCMB 010052 after 24 hrs by serial dilution method; assay type: functional; conditions: RCMB 010052, 24 h
Aspergillus fumigatus [10] = assay: Antifungal activity against Aspergillus fumigatus RCMB 02568 after 24 hrs by serial dilution method; assay type: functional; conditions: RCMB 02568, 24 h
Aspergillus fumigatus [11] = assay: Antifungal activity against Aspergillus fumigatus RCMB 02568 assessed as diameter of zone inhibition after 48 hrs by agar well diffusion assay; assay type: functional
Candida albicans [12] = assay: Antifungal activity against Candida albicans RCMB 05036 assessed as diameter of zone inhibition after 48 hrs by agar well diffusion assay; assay type: functional
Candida albicans [13] = assay: Antifungal activity against Candida albicans RCMB 05036 after 24 hrs by serial dilution method; assay type: functional; conditions: RCMB 05036, 24 h
[14] = test system: Mycobacterium tuberculosis; assay: Potency index, ratio of isoniazid MIC to compound MIC for antitubercular activity against Mycobacterium tuberculosis RCMB 010126 clinical isolate; assay type: functional
Aspergillus fumigatus [15] = assay: Potency index, ratio of amphotericin B MIC to compound MIC for antifungal activity against Aspergillus fumigatus RCMB 02568; assay type: functional
Staphylococcus aureus [16] = assay: Potency index, ratio of ciprofloxacin MIC to compound MIC for Staphylococcus aureus RCMB 010028; assay type: functional
Pseudomonas aeruginosa [17] = assay: Potency index, ratio of ciprofloxacin MIC to compound MIC for Pseudomonas aeruginosa RCMB 010043; assay type: functional
Escherichia coli [18] = assay: Potency index, ratio of ciprofloxacin MIC to compound MIC for Escherichia coli RCMB 010052; assay type: functional
Aspergillus fumigatus [19] = assay: Potency index, ratio of amphotericin B MIC to compound MIC for Aspergillus fumigatus RCMB 02568; assay type: functional
Enterococcus faecium = assay: Antibacterial activity against vancomycin-resistant Enterococcus faecium ATCC 700221 after 24 hrs by serial dilution method; assay type: functional; conditions: ATCC 700221, 24 h
Mycolicibacterium aurum = assay: Antitubercular activity against Mycobacterium aurum infected in mouse RAW264.7 cells measured after 48 hrs; assay type: functional
[20] = Cytotoxicity against mouse RAW264.7 cells; assay type: cell-based
[21] = Selectivity index, ratio of GI50 for mouse RAW264.7 cells to MIC for Mycobacterium aurum infected in mouse RAW264.7 cells; assay type: toxicity, cell-based; conditions: read-out: Selectivity Index
[22] = Stability in mouse RAW264.7 cells measured after 48 hrs; assay type: ADME, cell-based; conditions: raw264.7, 48 h
Staphylococcus aureus [23] = assay: Antibacterial activity against methicillin-resistant Staphylococcus aureus ATCC 33592 after 24 hrs by serial dilution method; assay type: functional; conditions: ATCC 33592, 24 h
WI-38 = assay: Cytotoxicity against human WI38 cells by MTT assay; assay type: cell-based
[24] = Selectivity index, ratio of IC50 for human WI38 cells to MIC for Mycobacterium tuberculosis RCMB 010126 clinical isolate; assay type: toxicity; conditions: read-out: Selectivity Index

Structure (SMILES)	inhibition (INH) [3] [%]	MIC [3] [µg/mL]	diameter of the inhibition zone (DIZ) (Staphylococcus aureus [4]) [mm]	MIC (Staphylococcus aureus [5]) [µg/mL]	diameter of the inhibition zone (DIZ) (Pseudomonas aeruginosa [6]) [mm]	diameter of the inhibition zone (DIZ) (Escherichia coli [7]) [mm]	MIC (Pseudomonas aeruginosa [8]) [µg/mL]	MIC (Escherichia coli [9]) [µg/mL]	MIC (Aspergillus fumigatus [10]) [µg/mL]	diameter of the inhibition zone (DIZ) (Aspergillus fumigatus [11]) [mm]	diameter of the inhibition zone (DIZ) (Candida albicans [12]) [mm]	MIC (Candida albicans [13]) [µg/mL]	Ratio (Aspergillus fumigatus [15])	Ratio (Staphylococcus aureus [16])	Ratio (Pseudomonas aeruginosa [17])	Ratio (Escherichia coli [18])	MIC (Mycolicibacterium aurum) [µg/mL]	GI50 [20] [µg/mL]	selectivity ratio [21]	Stability [22]	also measured
CCOC(=O)c1sc(/N=C2\NC(=O)/C(=C/c3cccnc3)S2)nc1C																					MIC [1]: 1.56 µg/mL (≈ 4.17 µM); selectivity ratio [2]: 52.1
CC(=O)c1sc(/N=C2\NC(=O)/C(=C3/C(=O)N(Cc4ccccc4)c4ccc(Cl)cc43)S2)nc1C	80.34	0.39 (≈ 0.766 µM)	23.6	0.98 (≈ 1.93 µM)	23.5	25.6	0.98 (≈ 1.93 µM)	0.49 (≈ 0.963 µM)	0.98 (≈ 1.93 µM)	23.6	25.3	0.49 (≈ 0.963 µM)	2	2	4	4					Ratio [14]: 2; Ratio (Aspergillus fumigatus [19]): 2
O=C(O)c1cn(C2CC2)c2cc(N3CCNCC3)c(F)cc2c1=O [CIPROFLOXACIN]			22.2	1.95 (≈ 5.89 µM)	23.1	24.3	3.9 (≈ 11.8 µM)	1.95 (≈ 5.89 µM)													MIC (Enterococcus faecium): 3.9 µg/mL (≈ 11.8 µM)
CCOC(=O)c1sc(/N=C2\NC(=O)/C(=C3/C(=O)N(C)c4ccccc43)S2)nc1C	76.35	0.39 (≈ 0.91 µM)	21.8	1.95 (≈ 4.55 µM)	21.5	21.5	1.95 (≈ 4.55 µM)	1.95 (≈ 4.55 µM)	1.95 (≈ 4.55 µM)	21.6	22.4	0.98 (≈ 2.29 µM)			2		200 (≈ 467 µM)	500 (≈ 1170 µM)	2.5	Stable	
CC(=O)c1sc(/N=C2\NC(=O)/C(=C3/C(=O)Nc4ccc(Cl)cc43)S2)nc1C	74.32	0.78 (≈ 1.86 µM)	22.1	0.98 (≈ 2.34 µM)	22.5	24.3	0.98 (≈ 2.34 µM)	0.49 (≈ 1.17 µM)	0.98 (≈ 2.34 µM)	22.9	24.2	0.49 (≈ 1.17 µM)	2	2	4	4					Ratio (Aspergillus fumigatus [19]): 2
CCOC(=O)c1sc(/N=C2\NC(=O)/C(=C3/C(=O)N(Cc4ccccc4)c4ccccc43)S2)nc1C	87.38	0.39 (≈ 0.773 µM)	24.2	1.95 (≈ 3.86 µM)	23.1	24.8	1.95 (≈ 3.86 µM)	0.98 (≈ 1.94 µM)	0.98 (≈ 1.94 µM)	23.2	25.2	0.49 (≈ 0.971 µM)	2		2	2	200 (≈ 396 µM)	500 (≈ 991 µM)	2.5	Stable	
CCOC(=O)c1sc(/N=C2\NC(=O)/C(=C3/C(=O)Nc4ccc(OC)cc43)S2)nc1C	84.35	0.39 (≈ 0.877 µM)	22.7	0.98 (≈ 2.2 µM)	22.1	22.6	1.95 (≈ 4.39 µM)	0.98 (≈ 2.2 µM)	1.95 (≈ 4.39 µM)	22.1	23.3	0.98 (≈ 2.2 µM)		2	2	2	> 200	> 62.5	< 0.312	Stable	Ratio [14]: 2
CCOC(=O)c1sc(/N=C2\NC(=O)/C(=C3/C(=O)Nc4ccccc43)S2)nc1C	72.14	0.78 (≈ 1.88 µM)	22.5	0.98 (≈ 2.36 µM)	21.8	22.4	1.95 (≈ 4.7 µM)	1.95 (≈ 4.7 µM)	0.98 (≈ 2.36 µM)	21.6	22.7	0.98 (≈ 2.36 µM)	2		2		100 (≈ 241 µM)	125 (≈ 302 µM)	1.25	Stable	
CN[C@H](CC(C)C)C(=O)N[C@H]1C(=O)N[C@@H](CC(N)=O)C(=O)N[C@H]2C(=O)N[C@H]3C(=O)N[C@H](C(=O)N[C@H](C(=O)O)c4cc(O)cc(O)c4-c4cc3ccc4O)[C@H](O)c3ccc(c(Cl)c3)Oc3cc2cc(c3O[C@@H]2O[C@H](CO)[C@@H](O)[C@H](O)[C@H]2O[C@H]2C[C@](C)(N)[C@H](O)[C@H](C)O2)Oc2ccc(cc2Cl)[C@H]1O [VANCOMYCIN]																					MIC (Staphylococcus aureus [23]): 1.95 µg/mL (≈ 1.35 µM)
CCOC(=O)c1sc(/N=C2\NC(=O)/C(=C3/C(=O)Nc4ccc(Cl)cc43)S2)nc1C	56.34	0.39 (≈ 0.869 µM)	23.1	0.98 (≈ 2.18 µM)	22.6	23.2	0.98 (≈ 2.18 µM)	0.98 (≈ 2.18 µM)	1.95 (≈ 4.34 µM)	22.7	24.4	0.49 (≈ 1.09 µM)		2	4	2	> 200	> 125	< 0.625	Stable	Ratio [14]: 2; Ratio (Aspergillus fumigatus [19]): 2
CC(=O)c1sc(/N=C2\NC(=O)/C(=C3/C(=O)N(C)c4ccccc43)S2)nc1C	76.35	0.39 (≈ 0.979 µM)	23.4	0.98 (≈ 2.46 µM)	23.2	25.1	0.98 (≈ 2.46 µM)	0.49 (≈ 1.23 µM)	0.98 (≈ 2.46 µM)	23.2	25.1	0.49 (≈ 1.23 µM)	2	2	4	4	50 (≈ 125 µM)	> 250	> 5	Stable	MIC (Staphylococcus aureus [23]): 15.6 µg/mL (≈ 39.2 µM); MIC (Enterococcus faecium): 62.5 µg/mL (≈ 157 µM); IC50 (WI-38): 5.3 µg/mL (≈ 13.3 µM); selectivity ratio [24]: 13; Ratio [14]: 2; Ratio (Aspergillus fumigatus [19]): 2
